# Data from ChEMBL document CHEMBL4373723 (J Med Chem, 2019).
# Activity calls are given as the source filed them. The calls are words filed in the database; no cut-off is given here. Bridge positions count the residues as written; N and C are the ends. Peptide text beside a SMILES is read from it. I, II: the chains in the order shown.
# Assays:
# Frizzled-10 = molecular target: T1, Frizzled-10 (Homo sapiens, UniProt Q9ULW2); assay: Binding affinity to Frizzled-10 CRD (unknown origin)
# T1 sequence (Q9ULW2 whole entry): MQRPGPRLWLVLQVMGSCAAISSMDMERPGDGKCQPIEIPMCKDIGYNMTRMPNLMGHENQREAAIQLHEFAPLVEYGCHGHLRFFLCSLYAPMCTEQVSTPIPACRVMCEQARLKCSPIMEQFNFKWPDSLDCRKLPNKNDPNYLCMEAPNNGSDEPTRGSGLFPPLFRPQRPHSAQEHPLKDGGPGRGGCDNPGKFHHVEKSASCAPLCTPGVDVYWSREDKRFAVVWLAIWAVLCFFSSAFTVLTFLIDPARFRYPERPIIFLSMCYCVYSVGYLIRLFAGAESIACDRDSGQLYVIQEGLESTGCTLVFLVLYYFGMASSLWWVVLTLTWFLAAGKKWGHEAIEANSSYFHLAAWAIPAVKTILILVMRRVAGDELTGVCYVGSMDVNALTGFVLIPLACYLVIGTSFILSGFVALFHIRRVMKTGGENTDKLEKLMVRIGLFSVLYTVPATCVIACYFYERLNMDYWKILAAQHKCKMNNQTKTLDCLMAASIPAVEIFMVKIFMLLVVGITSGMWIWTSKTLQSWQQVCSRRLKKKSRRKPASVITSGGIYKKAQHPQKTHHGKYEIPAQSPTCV
# [1] = Stability in presence of TCEP assessed as disulfide reduction at 20 uM measured over 40 mins at 37 degC by LC-MS analysis; type: physicochemical
# Frizzled-7 [2] = molecular target: T2, Frizzled-7 (Homo sapiens, UniProt O75084); type: cell-based; details: cho
# Frizzled-7 [3] = molecular target: T2, Frizzled-7; assay: Binding affinity to recombinant human Frizzled-7 (Gln33 to Leu185 residues)/human IgG1 chimeric protein expressed in CHO cells assessed as reduction in interaction of TcdB with FZD7 incubated for 1 hr by competition ELISA; type: cell-based
# Frizzled-4 = molecular target: T3, Frizzled-4 (Homo sapiens, UniProt Q9ULV1); assay: Binding affinity to recombinant human Frizzled-4 (Phe37 to Glu180 residues)/human IgG1 chimeric protein expressed in mouse NS0 cells by SPR assay
# T3 sequence (Q9ULV1 whole entry): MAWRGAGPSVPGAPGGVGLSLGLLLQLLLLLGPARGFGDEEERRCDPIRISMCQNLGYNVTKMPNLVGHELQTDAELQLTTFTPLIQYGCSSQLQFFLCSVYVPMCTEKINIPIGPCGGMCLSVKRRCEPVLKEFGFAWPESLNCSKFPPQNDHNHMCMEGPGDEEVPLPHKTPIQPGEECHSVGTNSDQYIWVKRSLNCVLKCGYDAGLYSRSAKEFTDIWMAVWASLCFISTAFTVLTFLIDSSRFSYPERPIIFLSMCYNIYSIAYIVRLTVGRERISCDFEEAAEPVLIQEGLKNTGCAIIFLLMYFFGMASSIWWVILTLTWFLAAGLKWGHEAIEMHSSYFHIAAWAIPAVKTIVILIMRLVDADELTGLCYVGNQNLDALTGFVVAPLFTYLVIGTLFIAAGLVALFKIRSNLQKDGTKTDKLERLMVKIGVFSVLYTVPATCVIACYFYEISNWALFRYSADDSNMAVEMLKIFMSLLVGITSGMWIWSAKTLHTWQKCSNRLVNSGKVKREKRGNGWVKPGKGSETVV
# Frizzled-5 = Frizzled-5 (Homo sapiens, UniProt Q13467); assay: Binding affinity to recombinant human Frizzled-5 (Ala27 to Pro167 residues)/human IgG1 chimeric protein expressed in mouse NS0 cells by SPR assay
# [4] = Binding affinity to recombinant human/mouse Frizzled-2 (Gln29 to Leu168 residues)/human IgG1 chimeric protein expressed in mouse NS0 cells by SPR assay
# [5] = Binding affinity to recombinant human/mouse Frizzled-2 (Gln29 to Leu168 residues)/human IgG1 chimeric protein expressed in mouse NS0 cells assessed as reduction in interaction of TcdB with FZD7 incubated for 1 hr by competition ELISA; type: cell-based
# [6] = mouse, serum, 24 h, 200 µM
# Frizzled-8 = Frizzled-8 (Homo sapiens, UniProt Q9H461); assay: Binding affinity to recombinant human Frizzled-8 (Ala25 to Pro172 residues)/human IgG1 chimeric protein expressed in CHO cells […] by SPR assay
# Frizzled-9 = molecular target: T4, Frizzled-9 (Homo sapiens, UniProt O00144); assay: Binding affinity to Frizzled-9 CRD (unknown origin)
# T4 sequence (O00144 whole entry): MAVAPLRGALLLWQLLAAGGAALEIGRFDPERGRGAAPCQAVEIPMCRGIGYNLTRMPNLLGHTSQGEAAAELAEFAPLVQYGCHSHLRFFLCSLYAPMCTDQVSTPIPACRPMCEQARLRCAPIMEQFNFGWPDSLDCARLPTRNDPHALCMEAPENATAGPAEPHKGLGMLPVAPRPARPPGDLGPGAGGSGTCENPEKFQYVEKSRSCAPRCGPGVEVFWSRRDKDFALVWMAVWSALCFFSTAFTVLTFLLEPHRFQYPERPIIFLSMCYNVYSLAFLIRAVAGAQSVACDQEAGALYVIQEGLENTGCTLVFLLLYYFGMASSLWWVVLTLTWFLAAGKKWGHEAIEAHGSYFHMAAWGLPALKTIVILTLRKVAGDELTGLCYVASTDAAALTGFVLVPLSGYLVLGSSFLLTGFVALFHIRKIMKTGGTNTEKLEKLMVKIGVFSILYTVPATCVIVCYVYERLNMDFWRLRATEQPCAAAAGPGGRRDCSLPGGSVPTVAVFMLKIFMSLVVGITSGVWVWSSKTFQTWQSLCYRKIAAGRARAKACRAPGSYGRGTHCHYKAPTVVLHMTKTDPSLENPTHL
# [7] = 40 min, 20 µM
# Frizzled-7 [8] = molecular target: T2, Frizzled-7; details: CHO
# Frizzled-1 = Frizzled-1 (Homo sapiens, UniProt Q9UP38); assay: Binding affinity to recombinant human Frizzled-1 (Gln73 to His253 residues)/human IgG1 chimeric protein expressed in mouse NS0 cells by SPR assay
# [9] = 40 min, 20 µM; remark: listed apart in the source
# Frizzled-7 [10] = molecular target: T2, Frizzled-7; assay: biochemical; type: cell-based, CHO; details: read-out: Kd
# Frizzled-7 [11] = molecular target: T2, Frizzled-7; assay: Binding affinity to recombinant human Frizzled-7 (Gln33 to Leu185 residues)/human IgG1 chimeric protein expressed in CHO cells assessed as association rate constant by SPR assay; type: cell-based
# Frizzled-7 [12] = molecular target: T2, Frizzled-7; assay: Inhibition of Frizzled-7 in HEK293 cells expressing Wnt assessed as reduction in Wnt signaling by firefly luciferase reporter gene assay; type: cell-based
# Homo sapiens = organism: Homo sapiens; assay: Binding affinity to recombinant human/mouse Frizzled-2 (Gln29 to Leu168 residues)/human IgG1 chimeric protein expressed in mouse NS0 cells assessed as reduction in interaction of TcdB with FZD7 by SPR
# Frizzled-7 [13] = molecular target: T2, Frizzled-7; assay: Binding affinity to recombinant human Frizzled-7 (Gln33 to Leu185 residues)/human IgG1 chimeric protein expressed in CHO cells assessed as reduction in interaction of TcdB with FZD7 by SPR
# Frizzled-5, sequence (Q13467 whole entry): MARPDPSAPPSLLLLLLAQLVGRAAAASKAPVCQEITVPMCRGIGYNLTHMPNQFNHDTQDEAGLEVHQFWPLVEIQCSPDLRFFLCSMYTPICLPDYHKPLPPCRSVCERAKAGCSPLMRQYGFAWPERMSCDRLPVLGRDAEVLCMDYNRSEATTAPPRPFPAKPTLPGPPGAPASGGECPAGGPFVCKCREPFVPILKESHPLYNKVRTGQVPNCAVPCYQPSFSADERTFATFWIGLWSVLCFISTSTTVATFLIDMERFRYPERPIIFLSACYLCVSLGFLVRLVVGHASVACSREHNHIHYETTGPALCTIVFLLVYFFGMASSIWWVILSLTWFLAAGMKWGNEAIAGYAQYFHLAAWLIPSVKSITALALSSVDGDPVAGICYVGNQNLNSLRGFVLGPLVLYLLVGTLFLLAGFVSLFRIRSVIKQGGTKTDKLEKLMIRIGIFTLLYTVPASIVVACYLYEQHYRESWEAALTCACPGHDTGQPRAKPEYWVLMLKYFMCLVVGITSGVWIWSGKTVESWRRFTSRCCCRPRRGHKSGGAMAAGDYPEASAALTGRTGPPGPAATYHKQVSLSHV
# Frizzled-1, sequence (Q9UP38 whole entry): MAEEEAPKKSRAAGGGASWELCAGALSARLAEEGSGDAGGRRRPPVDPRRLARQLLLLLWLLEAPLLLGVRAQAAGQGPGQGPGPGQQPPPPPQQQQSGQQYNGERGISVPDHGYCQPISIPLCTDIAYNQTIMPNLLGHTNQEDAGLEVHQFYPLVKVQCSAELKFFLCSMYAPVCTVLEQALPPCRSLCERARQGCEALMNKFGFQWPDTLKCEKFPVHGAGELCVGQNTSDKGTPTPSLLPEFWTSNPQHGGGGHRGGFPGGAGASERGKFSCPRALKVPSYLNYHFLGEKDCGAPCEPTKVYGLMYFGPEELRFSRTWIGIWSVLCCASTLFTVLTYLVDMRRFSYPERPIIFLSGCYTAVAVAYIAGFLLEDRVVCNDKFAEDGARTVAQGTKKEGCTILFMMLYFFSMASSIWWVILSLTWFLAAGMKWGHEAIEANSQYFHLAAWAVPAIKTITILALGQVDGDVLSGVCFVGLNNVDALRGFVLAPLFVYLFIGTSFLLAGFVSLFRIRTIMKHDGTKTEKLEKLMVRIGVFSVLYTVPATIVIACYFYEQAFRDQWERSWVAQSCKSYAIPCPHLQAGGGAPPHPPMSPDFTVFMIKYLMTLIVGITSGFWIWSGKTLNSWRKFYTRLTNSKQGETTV
# Frizzled-8, sequence (Q9H461 whole entry): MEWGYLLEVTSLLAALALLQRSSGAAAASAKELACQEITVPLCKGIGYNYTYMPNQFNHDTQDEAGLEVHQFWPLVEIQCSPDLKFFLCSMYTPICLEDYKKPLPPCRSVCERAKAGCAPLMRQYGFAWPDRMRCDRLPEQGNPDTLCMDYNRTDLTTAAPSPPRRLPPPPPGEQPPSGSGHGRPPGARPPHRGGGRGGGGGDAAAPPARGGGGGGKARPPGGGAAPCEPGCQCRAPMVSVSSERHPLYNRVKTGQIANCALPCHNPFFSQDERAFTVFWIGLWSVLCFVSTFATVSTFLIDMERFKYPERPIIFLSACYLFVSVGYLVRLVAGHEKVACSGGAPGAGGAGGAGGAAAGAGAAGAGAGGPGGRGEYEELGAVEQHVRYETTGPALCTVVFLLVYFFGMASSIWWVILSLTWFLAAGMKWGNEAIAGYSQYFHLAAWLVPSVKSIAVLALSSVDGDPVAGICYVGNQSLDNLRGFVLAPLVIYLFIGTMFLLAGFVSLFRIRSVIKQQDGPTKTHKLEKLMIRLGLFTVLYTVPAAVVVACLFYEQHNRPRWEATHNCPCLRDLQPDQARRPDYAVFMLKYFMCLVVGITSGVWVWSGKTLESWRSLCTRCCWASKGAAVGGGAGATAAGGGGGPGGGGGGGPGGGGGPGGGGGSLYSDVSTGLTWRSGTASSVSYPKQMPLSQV
SMILES,Kd (Frizzled-10),Stability [1],Kd (Frizzled-7 [2]),inhibition (Frizzled-7 [3]),Kd (Frizzled-4),Kd (Frizzled-5),Kd [4],inhibition [5],Stability [6],Kd (Frizzled-8),Kd (Frizzled-9),Stability [7],Ka (Frizzled-7 [8]),Kd (Frizzled-1),Stability [9],Kd (Frizzled-7 [10]),association rate constant (ka) (Frizzled-7 [11]),IC50 (Frizzled-7 [12]),inhibition (Homo sapiens),inhibition (Frizzled-7 [13])
CSCC[C@H](NC(=O)[C@@H](NC(=O)[C@H](Cc1cnc[nH]1)NC(=O)[C@H](CSSC[C@H](NC(=O)[C@H](Cc1c[nH]c2ccccc12)NC(=O)[C@H](Cc1ccccc1)NC(=O)[C@H](CCC(=O)O)NC(=O)[C@H](CC(C)C)NC(=O)[C@H](CC(=O)O)NC(=O)[C@H](CC(=O)O)NC(=O)[C@H](CO)NC(C)=O)C(=O)N[C@@H](Cc1cnc[nH]1)C(=O)N[C@H](C(=O)N[C@@H](CCSC)C(=O)N[C@@H](Cc1ccc(O)cc1)C(N)=O)C(C)C)NC(=O)[C@H](Cc1c[nH]c2ccccc12)NC(=O)[C@H](Cc1ccccc1)NC(=O)[C@H](CCC(=O)O)NC(=O)[C@H](CC(C)C)NC(=O)[C@H](CC(=O)O)NC(=O)[C@H](CC(=O)O)NC(=O)[C@H](CO)NC(C)=O)C(C)C)C(=O)N[C@@H](Cc1ccc(O)cc1)C(N)=O (I: Ac-SDDLEFWCHVMY-NH2 / II: Ac-SDDLEFWCHVMY-NH2; disulfide I:8-II:8),Not Active,Unstable,2.3 ×10⁻³ /s,Dose-dependent effect,Not Active,Not Active,0.99 nM,Dose-dependent effect,Stable,Not Active,Not Active,Unstable,61.9 ×10⁵ /M/s,1.12 nM,Unstable,0.37 nM,,,,
CC[C@H](C)[C@H](NC(=O)[C@H](Cc1cnc[nH]1)NC(=O)[C@H](CSSCC[C@H](NC(=O)[C@H](Cc1c[nH]c2ccccc12)NC(=O)[C@H](CC(C)C)NC(=O)[C@H](CCC(=O)O)NC(=O)[C@H](CC(C)C)NC(=O)[C@H](CC(=O)O)NC(=O)[C@H](CC(=O)O)NC(=O)[C@@H](NC(C)=O)[C@@H](C)O)C(=O)N[C@@H](Cc1cnc[nH]1)C(=O)N[C@H](C(=O)N[C@@H](CCSC)C(=O)N[C@@H](Cc1ccc(O)cc1)C(N)=O)[C@@H](C)CC)NC(=O)[C@H](Cc1c[nH]c2ccccc12)NC(=O)[C@H](CC(C)C)NC(=O)[C@H](CCC(=O)O)NC(=O)[C@H](CC(C)C)NC(=O)[C@H](CC(=O)O)NC(=O)[C@H](CC(=O)O)NC(=O)[C@@H](NC(C)=O)[C@H](C)O)C(=O)N[C@@H](CCSC)C(=O)N[C@@H](Cc1ccc(O)cc1)C(N)=O,,Stable,6.3 ×10⁻³ /s,,,,,,Stable,,,Stable,,,,0.37 nM,1.7 ×10⁷ /M/s,,,
CSCC[C@H](NC(=O)[C@@H](NC(=O)[C@H](Cc1cnc[nH]1)NC(=O)[C@H](CSSC[C@H](NC(=O)[C@H](Cc1c[nH]c2ccccc12)NC(=O)[C@H](Cc1ccccc1)NC(=O)[C@H](CCC(=O)O)NC(=O)[C@H](CC(C)C)NC(=O)[C@H](CC(=O)O)NC(=O)[C@H](CC(=O)O)NC(=O)[C@H](CO)NC(=O)[C@@H]1CCCN1C(=O)[C@H](CC(C)C)NC(C)=O)C(=O)N[C@@H](Cc1cnc[nH]1)C(=O)N[C@H](C(=O)N[C@@H](CCSC)C(=O)N[C@@H](Cc1ccc(O)cc1)C(N)=O)C(C)C)NC(=O)[C@H](Cc1c[nH]c2ccccc12)NC(=O)[C@H](Cc1ccccc1)NC(=O)[C@H](CCC(=O)O)NC(=O)[C@H](CC(C)C)NC(=O)[C@H](CC(=O)O)NC(=O)[C@H](CC(=O)O)NC(=O)[C@H](CO)NC(=O)[C@@H]1CCCN1C(=O)[C@H](CC(C)C)NC(C)=O)C(C)C)C(=O)N[C@@H](Cc1ccc(O)cc1)C(N)=O (I: Ac-LPSDDLEFWCHVMY-NH2 / II: Ac-LPSDDLEFWCHVMY-NH2; disulfide I:10-II:10),Not Active,,5.6 ×10⁻³ /s,Dose-dependent effect,Not Active,Not Active,1.46 nM,Dose-dependent effect,,Not Active,Not Active,,47.5 ×10⁵ /M/s,2.42 nM,,1.18 nM,,32 nM,,
CC[C@H](C)[C@H](NC(=O)[C@H](Cc1cnc[nH]1)NC(=O)[C@H](CSSC[C@H](NC(=O)[C@H](Cc1c[nH]c2ccccc12)NC(=O)[C@H](Cc1cccc(Cl)c1)NC(=O)[C@H](CCC(=O)O)NC(=O)[C@H](CC(C)C)NC(=O)[C@H](CC(=O)O)NC(=O)[C@H](CC(=O)O)NC(=O)[C@@H](NC(C)=O)[C@H](C)O)C(=O)N[C@@H](Cc1cnc[nH]1)C(=O)N[C@H](C(=O)N[C@@H](CCSC)C(=O)N[C@@H](Cc1ccc(O)cc1)C(N)=O)[C@@H](C)CC)NC(=O)[C@H](Cc1c[nH]c2ccccc12)NC(=O)[C@H](CC(C)C)NC(=O)[C@H](CCC(=O)O)NC(=O)[C@H](Cc1cccc(Cl)c1)NC(=O)[C@H](CC(=O)O)NC(=O)[C@H](CC(=O)O)NC(=O)[C@@H](NC(C)=O)[C@H](C)O)C(=O)N[C@@H](CCSC)C(=O)N[C@@H](Cc1ccc(O)cc1)C(N)=O,Not Active,,0.54 ×10⁻³ /s,Dose-dependent effect,Not Active,Not Active,0.32 nM,Dose-dependent effect,,Not Active,Not Active,,139 ×10⁵ /M/s,0.34 nM,,0.039 nM,,53 nM,Active,Active
